Laboratory results from patent US5607836A, “Methods of detecting compounds which bind to the P2U receptor” (The Curators of the University of Missouri, priority 1995, dated 1997).

Assays:
[1] = target: human P2U receptor (Homo sapiens, UniProt P41231); test: intracellular calcium by fura-2 fluorescence in 1321N1 human astrocytoma cells expressing the cloned HP2U (LHP2USN); assay type: cell-based; conditions: for [Ca^2+ ]i in absence of extracellular Ca^2+: HP2U-1321N1 cells
Method: Heteroloqous Expression. A retroviral vector-containing plasmid, pLHP2USN, was constructed by insertion of the cloned CF/T43 cDNA into the EcoRI and XhoI sites of pLXSN (A. Miller and G. Rosman, Biotechniques 7, 980 (1989)). An amphotrophic packaging cell line, PA317, was used to produce the LHP2USN retroviral vector and a control vector containing Neor only (LSN). Clonal human astrocytoma cells 1321N1, UNC strain, generously provided by T. K. Harden (UNC, Chapel Hill, N.C.), were plated at 150,000 cells per 60-mm dish and infected with LHP2USN or LSN (2 hr, 4 ug/ml Polybrene) and after 48 hr selected with 600 ug/ml G418 (Life Technologies, Inc., Gaithersburg, Md., U.S.A.). To assay for receptor activity, intracellular calcium concentration was measured in confluent cells on coverslips by fura-2 fluorescence using microspectrofluorimetry as previously described (S. Mason et al., Br. J. Pharmacol. 103, 1649 (1991)). Measurement of cell inositol phosphate formation was as described by H. Brown et al., Mol. Pharmacol. 40, 648 (1991), in accordance with known techniques.
A retrovirus expression system was employed to study the cloned CF/T43 HP2U cDNA in 1321N1 human astrocytoma cells. The effect of extracellular nuceotides on intracellular calcium, as measured by fura-2 fluorescence, was assessed in CF/T43 cells, uninfected 1321N1 cells, and 1321N1 cells infected with retroviral vector containing either the cloned HP2U or no insert (LSN).
To examine the pharmacological specifity of the HP2U clone expressed in 1321N1 cells, concentration-effect curves were generated for nucleotides and structural analogues active at P2X, P2Y and P2U receptors (data not shown). […] These concentration-effect relations are very similar to those reported for heterologously expressed murine P2U (Lustig, et al., supra) and virtually indistinguishable from data (not shown) generated for the endogenous CF/T43 and HT-29 receptors. Clearly, the agonist specifities fit the definition of the P2U receptor.

[2] = tested on: P2T receptor of K562 cells; test: cytoplasmic free calcium (fura-2) in untransfected or vector-transfected K562 cells; assay type: cell-based, human; conditions: untransfected or vector-transfected K562 cells
Text: (§1) Stable and Transient Transfections. To generate stable transfectants expressing the P2U receptor, K562 cells were transfected by electroporation (F. Toneguzzo et al., Mol. Cell. Biol. 6, 703 (1986)) with the neomycin-resistance plasmid pP2R1. pP2R1 is pRc/CMV containing a ~2.4 kb HindIII-NotI fragment of the P2U receptor cDNA, missing the first 6 nucleotides of the 5' untranslated region of the full length cDNA. control cells were stably transfected with pRc/CMV. Cells were sedimented at 200×g for 5 min at room temperature, rinsed once with phosphate-buffered saline (10 mM NaH2 PO4, pH 7.4, 120 mM NaCl, 5 mM KCl), and resuspended in phosphate-buffered saline at a final concentration of 4×10^7 cells/ml. The cells were chilled on ice for 10 min and then transferred in 0.5 ml aliquots to prechilled electroporation cuvettes. DNA (40 μg of pP2R1 linearized with PvuI) was added to the cell suspension, the cells were subjected to a single electrical pulse (1 kV, 25 μF) and the cuvettes were placed on ice. After 10 min, growth medium was added and the cells were incubated at 37° C. Fresh growth medium supplemented with 0.7 mg/ml G418 was added 48 h […], and the cells were incubated for 2 weeks to select for stable transfectants expressing neomycin resistance. Clonal cell lines were then isolated by transferring single cells to individual wells of a 96-well culture plate: each well contained 0.2 ml of conditioned growth medium filtered from K562 stock cultures, 0.2 ml of fresh growth medium, and 0.4 mg/ml G418. The clonal cell lines were cultured for three to four weeks in growth medium containing 0.4 mg/ml G418 and assayed for P2U receptor, the results shown are from one representative clonal cell line.
Cytoplasmic Free Calcium Measurements. Cells were sedimented at 200×g for 5 min at room temperature and washed once with 10 ml of Hepes-bufferedsaline (20 mM Hepes, pH 7.4, 120 mM NaCl, 5 mM KCl, 1 mM MgCl2, and 1 mM CaCl2). Washed cells were suspended in Hepes-buffered saline at 5×10^5 cells/ml, and stored (for up to 4 h) at 37° C. The concentration of cytoplasmic free calcium, [Ca^2+ ]i, was measured by dual-excitation spectrofluorometric analysis of cells loaded with fura-2, a fluorescent probe for calcium.

[3] = target: T1, murine P2U receptor (Mus musculus, UniProt P35383); test: intracellular phosphatidylinositol 4,5-bisphosphate (PIP2) in K562 stable transfectants; assay type: cell-based; conditions: transient
Text: as §1, with “Clonal cell lines were then isolated by transferring single cells to individual wells of a 96-well culture plate: each well contained 0.2 ml of conditioned growth medium filtered from K562 stock cultures, 0.2 ml of fresh growth medium, and 0.4 mg/ml G418. The clonal cell lines were cultured for three to four weeks in growth medium containing 0.4 mg/ml G418 and assayed for P2U receptor, the results shown are from one representative clonal cell line.” left out

[4] = target: histidine-tagged P2U receptor (P2HIS) (Mus musculus, UniProt P35383); test: PIP2 in K562 cells stably expressing P2HIS; assay type: cell-based, murine
Method: Construction and Purification of the Histidine-tagged P2U Receptor (P2HIS). To produce P2HIS, 70 pmoles of the primers CGCACCATTGCCTTGGTAC (SEQ ID NO:3)(which contains a BstXI site) and […] (SEQ ID NO:4) (which contains an EcoRV site, stop codon, and the hexahistidine coding sequence) were incubated with 50 ng of pP2R, 20 nmoles of each dNTP, 1X reaction buffer (20 mM Tris-HCl, pH 8.2, 10 mM KCl, 6 mM (NH4)2 SO4, 1.5 mM MgCl2, and 0.1% Triton X-100), and H2 O to bring the reaction mixture to a 100 μl volume. […] The reaction mixture was overlayed with 50 μl of mineral oil and subjected to 30 PCR cycles (95° C. for 1.5 min, 55° C. for 1.5 min, and 72° C. for 2 min). The PCR product, a single 400 bp band, was subcloned into the unique BstXI-EcoRV restriction site of pP2R to generate pP2HIS. K562 cells with stable P2HIS expression were produced by subcloning the HindIII-NotI restriction fragment of pP2HIS encoding the histidine-taged P2U receptor cDNA into pRC/CMV and transfecting K562 cells as described for pP2R1. The composition of pP2HIS was verified by DNA sequence analysis.

[5] = target: T1, murine P2U receptor; parameters: host or cells: Xenopus oocytes; conditions: Lustig et al. 1993, cited from earlier work; for EC50: Xenopus oocytes, read-out: EC50 in Xenopus oocytes expressing the P2U receptor; for activation of the cloned murine receptor: background

Sequence of human P2U receptor (P41231 whole entry): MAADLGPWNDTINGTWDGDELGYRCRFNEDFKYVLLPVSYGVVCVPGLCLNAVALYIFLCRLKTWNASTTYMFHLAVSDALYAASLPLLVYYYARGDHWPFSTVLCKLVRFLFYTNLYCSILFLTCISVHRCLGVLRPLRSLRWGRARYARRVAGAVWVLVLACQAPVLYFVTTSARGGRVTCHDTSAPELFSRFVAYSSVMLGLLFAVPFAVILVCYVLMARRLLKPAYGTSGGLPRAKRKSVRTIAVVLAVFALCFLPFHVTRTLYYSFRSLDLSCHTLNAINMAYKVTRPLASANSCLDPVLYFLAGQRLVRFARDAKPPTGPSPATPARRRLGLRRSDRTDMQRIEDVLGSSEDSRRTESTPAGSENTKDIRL
T1 sequence (P35383 whole entry): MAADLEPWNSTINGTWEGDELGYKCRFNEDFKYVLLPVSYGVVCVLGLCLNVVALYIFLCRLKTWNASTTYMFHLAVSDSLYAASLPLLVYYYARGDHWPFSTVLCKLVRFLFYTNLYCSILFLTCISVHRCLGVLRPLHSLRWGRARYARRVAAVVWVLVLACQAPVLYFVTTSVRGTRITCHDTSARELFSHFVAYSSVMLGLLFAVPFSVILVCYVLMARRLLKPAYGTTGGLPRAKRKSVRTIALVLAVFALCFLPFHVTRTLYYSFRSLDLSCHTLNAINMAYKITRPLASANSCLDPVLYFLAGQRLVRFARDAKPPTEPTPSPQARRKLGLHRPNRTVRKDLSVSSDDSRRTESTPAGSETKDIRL
Sequence of histidine-tagged P2U receptor (P2HIS) (P35383 whole entry): as above

| Structure (SMILES) | EC50 [1] [nM] | [Ca^2+ ]i response of 1321N1 cells expressing the LHP2USN vector ([1]; Ca2+-free and Ca2+-containing media) | [Ca^2+ ]i in absence of extracellular Ca^2+ [1] | elevation of [Ca^2+ ]i in untransfected or vector-transfected K562 cells [2] | reduction of intracellular levels of phosphatidylinositol 4,5-bisphosphate (PIP2) [3] | PIP2 in K562 cells stably expressing P2HIS [4] | EC50 [5] [nM] | activation of the cloned murine receptor [5] | efficacy / effect in concentration-effect curves ([1]; HP2U clone expressed in 1321N1 cells) |
| --- | --- | --- | --- | --- | --- | --- | --- | --- | --- |
| Nc1ncnc2c1ncn2[C@@H]1O[C@H](COP(=O)(O)OP(=O)(O)OP(=O)(O)O)[C@@H](O)[C@H]1O [ATP] | 1000 | the same result observed with UTP | raised [Ca^2+ ]i | Neither ATP nor UTP elevated [Ca^2+ ]^i | approximately 10% | decrease in PIP2 | ~1000 | activated |  |
| O=c1ccn([C@@H]2O[C@H](COP(=O)(O)OP(=O)(O)OP(=O)(O)O)[C@@H](O)[C@H]2O)c(=O)[nH]1 [UTP] | 1400 |  | raised [Ca^2+ ]i | Neither ATP nor UTP elevated [Ca^2+ ]^i | approximately 10% | decrease in PIP2 | ~1000 | activated | slightly more efficacious |
